Holding throughout (format): physicochemical
Series [1] in a line: Bound lipophile index (SEC peak area ratio 280 nm/214 nm). The conditions noted are these: Example 35 model systems.
Procedure: The size exclusion chromatography (SEC) system used in the following Examples is as follows: Column: Superdex Peptide 10/300 GL, GE Healthcare P/N 17-5176-01; Mobile Phase: 700 mL Milli-Q Plus water, 300 mL acetonitrile; 1.0 mL trifluoroacetic acid; Flow Rate: 0.4 mL/minute; Temperature: ambient (˜21° C.); Detection: UV light at 214 nm, 280 nm; visible light at 476 nm; Injection: 10 μL; Run Time: 70 minutes; Sample Preparation: dilute 0.6-1.1 g to 10 mL with Mobile Phase; Calibration: by 6 purified reference proteins, 14.2-160 kD.
The bound lipophile index is determined as follows: a non-specific indicator of lipophilic nutrients (including lutein and any combination of other oil soluble vitamins) in the high MW protein peak (described above). […]
A study was conducted to evaluate the effect of relative centrifugal force (RCF) on analyzing the high molecular weight lutein assembly in the aqueous phase. […] The compositions were then assessed for high molecular weight lutein assembly and the presence of protein >137 kD as done above, as well as bound lipophile index. Bound lipophile index, a relative marker for of lipophilic nutrients in the high molecular weight assembly, was determined as the peak ratio, 280 nm/214 nm for protein >137 kD.
Series [2] can be described thus: Centrifugation/ultrafiltration analysis of lutein and MDG distribution (Example 60). The conditions noted are these: centrifugation at 100,000×g. Here is the method:
A study was conducted to further investigate the distribution of lutein and MDG within the nutritional composition. Samples included MDG/lutein/water; MDG/lutein/NFDM/water; MDG/lutein/WPC/water; and MDG/water.
The premixes were provided as follows: in samples that contained lutein, lutein was heated for 2 h at 50° C. with shaking. […] In samples that contained protein, non-fat dried milk was added to water (50-60° C.) with agitation and allowed to hydrate for approximately 10 min.
The samples were prepared as follows: for solution 1, water was heated to 50-60° C., an lutein in GMO-40 blend and turrax (30 sec 10000 rpm) was added; for solution 2, NFDM was placed in water solution heated to 50-60° C., and lutein was added in GMO-40 blend and turrax (30 sec 10000 rpm); for solution 3, water was heated to 50-60° C., and GMO-40 blend and turrax (30 sec 10000 rpm) was added. The solutions are listed in the table below as X.1, wherein 1 is the solution.
Samples were formulated as detailed above, and then characterized by ultrafiltration with various membranes, as well as ultracentrifuged at various times and speed (e.g., 100,000×g, 4,500×g, and 1,000×g). The details of the different centrifugation/filtration method are listed below. […]

Series [3] can be described thus: Distribution of lutein and MDG in cream, aqueous and pellet layers after 100,000×g (Example 58). The conditions noted are these: 100,000×g for 1 hour; wt % of the nutritional composition. Here is the method: A study was conducted to investigate the distribution of lutein and MDG within the nutritional compositions. Sample were prepared using homogenization at 150/20 bar, and then centrifuged at 100,000×g for 1 hour. The different layers (e.g., cream, aqueous, and pellet) were then analyzed for the presence of lutein and MDG.

In the case of `C[N+](C)(C)CCO` [choline], the “bound lipophile index when choline was present” value in series [1] was “decreased”.
For the compound `CC1=C[C@H](O)CC(C)(C)[C@H]1/C=C/C(C)=C/C=C/C(C)=C/C=C/C=C(C)/C=C/C=C(C)/C=C/C1=C(C)C[C@@H](O)CC1(C)C` [lutein], the “lutein in the aqueous phase” value in series [2] (samples containing only lutein and MDG) is reported as “negligible”; in series [2] (samples containing protein), “only found in the aqueous phase of samples containing protein”. In addition, the “present in the aqueous phase following centrifugation” value in series [3] is reported as “approximately 4 wt %”.

The values are drawn from US12628856B2, “Nutritional composition having lipophilic compounds with improved solubility and bioavailability” (Abbott Laboratories, priority 2013, dated 2026).
